Measured values reported in patent publication US12560609B2, “Biomarkers predictive of cancer cell response to ML329 or a derivative thereof” (Dana-Farber Cancer Institute, Inc., priority 2018, dated 2026).

How the values were obtained:
CK2 [1] = target: T1, CK2 (Homo sapiens, UniProt P19784+P68400); test: SAR of ML329 derivatives: NQO1-dependent CK2 inhibitors; assay type: cell-based; conditions: FIG. 21
T1 construct: endogenous in cells

CK2 [2] = target: CK2 (Homo sapiens, UniProt P68400); test: CK2 activity in vitro, with or without Nqo1; assay type: biochemical; conditions: for requirement of Nqo1 for inhibition of CK2 in vitro: FIG. 24E, 24F
[3] = tested on: KEAP1-mutant lung cancer cells; test: Sensitivity of wild-type and KEAP1-mutated lung cancer cell lines to ML329; assay type: cell-based; conditions: sensitive cell lines had IC50<10 μM (FIG. 35B)
Experimental: ML329 (4-[(1,4-dioxo-1,4-dihydronapthalen-2-yl)amino]benzenesulfonamide; […]) is a small molecule that was initially identified as an inhibitor of microphthalmia-associated transcription factor (MITF) (FIGS. 1-6). Briefly, Sk-MEL-5 melanoma cells expressing the promoter of MITF target TRPM1, upstreatm of a luciferase gene, were screened with a library of 331,578 compounds. Secondary screening was performed in two MITF-dependent melanoma cell links (SK-MEL-5 and MALME) and one non-MITF dependent cell line (A375). Candidate hits were tested for their effects on MITF target genes by qPCR. BRD-K45681478 was prioritized for medicinal chemistry. The lead compounds ML329 was used in subsequent studies. […] CK2 is an essential kinase and its reduction/inhibition is lethal (FIG. 11 and FIG. 12). Experiments were performed to determine that ML329 is bioreduced by an enzyme called NQO1, which is preferentially expressed in some cancer types, especially melanoma (FIGS. 13-15). Since ML329 is converted by cancer cells into an active form, it can avoid effects on normal cells. NQO1 is necessary and sufficient for the activity of ML329, thus enabling targeting of CK2 specifically to cancers with high NQO1 expression (FIGS. 16-18). […] Greater than 90% of KEAP1-mutant lung cancers were determined to be sensitive to ML329 (FIG. 20).

WM266.4 cells = test: WM266.4 melanoma xenograft, tumor volume; assay type: in vivo; conditions: NSG mice xenografted with WM266.4 cells; 10 mg/kg twice daily
489 cancer cell lines = test: PRISM viability screen of 489 cancer cell lines; assay type: cell-based; conditions: 489 cell lines, FIG. 30
Experimental: Negative odds are associated with sensitivity to ML329 whereas positive odds are associated with insensitivity to ML329.
Strictly Standardized Mean Difference (SSMD) was determined for each cell line. Cell lines with SSMD<2 were filtered out. All cell lines tested had SSMD>2.

MITF = test: qPCR of MITF mRNA and MITF target genes; assay type: cell-based; conditions: FIG. 22
Source text: FIG. 26A-FIG. 26H show the results of a small molecule screen to identify regulators of lineage-specific melanoma oncogene MITF. […] SK-MEL-5 cells stably expressing the TRPM1 promoter fused to the luciferase gene were screened with 331,578 compounds. Secondary screens of putative hits including evaluating cytotoxicity in 2 MITF-dependent cell lines (SK-MEL-5, MALME) and 1 MITF-independent cell line (A375M) and evaluation the effect of candidate hits on the mRNA of MITF and target genes. […] BRD-K45681478 was the lead hit, which was modified by structure-function analysis to generate the compound ML329. FIG. 26B show cell number after 48 h treatment of melanoma cell lines (red) compared to non-melanoma cell lines (black) with ML329. […] MITF-dependent cell lines are depicted in green, whereas the MITF-independent cell line is depicted in red.
ML329 (4-[(1,4-dioxo-1,4-dihydronapthalen-2-yl)amino]benzenesulfonamide; KUC114363) is a small molecule that was initially identified as an inhibitor of microphthalmia-associated transcription factor (MITF) (FIGS. 1-6). Briefly, Sk-MEL-5 melanoma cells expressing the promoter of MITF target TRPM1, upstreatm of a luciferase gene, were screened with a library of 331,578 compounds. […] Greater than 90% of KEAP1-mutant lung cancers were determined to be sensitive to ML329 (FIG. 20).

Nqo1 = Nqo1 (Homo sapiens, UniProt P15559); test: Reduction of ML329 by Nqo1 in vitro; assay type: biochemical; conditions: FIG. 24D
[4] = tested on: CK2alpha and CK2alpha prime; test: Target identification: bead pull-down from SK-MEL-5 lysate with ML329 competition, mass spectrometry; assay type: binding
Source text: Whole protein lysates were generated from SK-MEL-5 melanoma cells and mixed with either KUC114363 (a derivative of ML329 conjugated to agarose beads) or KUC114363 along with competing amounts of soluble ML329. Mass spectrometry was used to identify proteins that bound KUC114363 whose binding was diminished upon treatment with ML329. […] Kinases found to bound are marked with red circles, where larger circles indicate higher-affinity binding. KINOMEScan image was generated using TREEspot™ Software Tool and reprinted with permission from KINOMEscan®, a division of DiscoveRx Corporation, © DISCOVERX CORPORATION 2010.

Sequence of CK2 (Homo sapiens, UniProt P68400) (P68400 whole entry): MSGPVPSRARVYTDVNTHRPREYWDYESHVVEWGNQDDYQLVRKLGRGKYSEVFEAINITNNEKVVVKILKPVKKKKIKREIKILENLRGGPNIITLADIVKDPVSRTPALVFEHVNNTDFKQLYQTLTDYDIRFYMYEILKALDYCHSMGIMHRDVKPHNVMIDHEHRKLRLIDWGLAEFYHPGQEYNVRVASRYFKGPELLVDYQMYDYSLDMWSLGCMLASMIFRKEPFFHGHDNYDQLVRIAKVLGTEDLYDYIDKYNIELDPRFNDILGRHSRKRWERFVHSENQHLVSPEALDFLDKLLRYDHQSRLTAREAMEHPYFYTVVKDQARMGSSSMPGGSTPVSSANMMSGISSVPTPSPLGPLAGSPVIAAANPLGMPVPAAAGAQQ
T1 sequence (P68400 whole entry): as above
T1 sequence (P19784 whole entry): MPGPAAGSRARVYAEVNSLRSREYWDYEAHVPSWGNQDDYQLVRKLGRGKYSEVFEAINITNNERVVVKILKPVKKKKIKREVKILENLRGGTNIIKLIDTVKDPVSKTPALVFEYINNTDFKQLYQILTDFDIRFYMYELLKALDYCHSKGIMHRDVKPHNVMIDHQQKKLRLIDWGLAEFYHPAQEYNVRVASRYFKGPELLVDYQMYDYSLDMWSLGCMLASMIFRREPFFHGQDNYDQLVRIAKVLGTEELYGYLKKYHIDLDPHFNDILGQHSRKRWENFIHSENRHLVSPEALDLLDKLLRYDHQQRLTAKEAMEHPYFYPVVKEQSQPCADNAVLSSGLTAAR
T1 sequence (P67870 whole entry partner): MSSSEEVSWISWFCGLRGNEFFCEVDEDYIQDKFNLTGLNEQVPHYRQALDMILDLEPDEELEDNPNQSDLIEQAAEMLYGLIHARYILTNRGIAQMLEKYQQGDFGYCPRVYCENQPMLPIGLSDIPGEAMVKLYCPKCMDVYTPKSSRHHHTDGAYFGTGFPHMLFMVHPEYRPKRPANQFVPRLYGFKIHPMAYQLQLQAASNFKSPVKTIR
Sequence of Nqo1 (P15559 whole entry, species assumed): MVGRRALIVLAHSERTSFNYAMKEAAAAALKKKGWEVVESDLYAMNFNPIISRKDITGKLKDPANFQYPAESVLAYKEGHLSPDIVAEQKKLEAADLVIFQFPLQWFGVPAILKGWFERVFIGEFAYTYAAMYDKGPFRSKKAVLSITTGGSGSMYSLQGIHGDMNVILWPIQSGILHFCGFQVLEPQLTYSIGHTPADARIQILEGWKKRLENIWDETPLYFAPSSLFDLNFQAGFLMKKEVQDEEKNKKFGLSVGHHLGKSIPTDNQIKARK

NC(=O)c1ccc(NC2=CC(=O)c3ccccc3C2=O)cc1 [SCAP105463]
potency and selectivity as NQO1-dependent CK2 inhibitor (SAR, relative to ML329) (CK2 [1]): more potent and selective NQO1-dependent CK2 inhibitors

NS(=O)(=O)c1cccc(NC2=CC(=O)c3ccccc3C2=O)c1 [SCAP105461]
potency and selectivity as NQO1-dependent CK2 inhibitor (SAR, relative to ML329) (CK2 [1]): more potent and selective NQO1-dependent CK2 inhibitors

O=C(O)c1ccc2c(c1)nc(Nc1cccc(Cl)c1)c1ccncc12 [CX4945, 5-[(3-Chlorophenyl)amino]benzo[c]-2,6-naphthyridine-8-carboxylic acid, reference compound]
requirement of Nqo1 for inhibition of CK2 in vitro (CK2 [2]): Nqo1 is not required | potency and selectivity as NQO1-dependent CK2 inhibitor (SAR, relative to ML329) (CK2 [1]): more potent and selective NQO1-dependent CK2 inhibitors

NS(=O)(=O)c1ccc(NC2=CC(=O)c3ccccc3C2=O)cc1 [ML329, 4-[(1,4-dioxo-1,4-dihydronapthalen-2-yl)amino]benzenesulfonamide]
share of KEAP1-mutant lung cancers sensitive to ML329 [3]: Greater than 90% | requirement of Nqo1 for inhibition of CK2 in vitro (CK2 [2]): Nqo1 is required | inhibition of CK2 activity (CK2 [2]; in vitro): inhibits CK2 activity in an ATP-competitive manner | in vivo activity in melanoma (tumor volume) (WM266.4 cells): has in vivo activity in melanoma that requires NRF2/NQO1 | selectivity of cytotoxicity across cancer cell lines (489 cancer cell lines): selectively cytotoxic in melanoma cells | effect on MITF mRNA and target gene expression (MITF): suppresses MITF mRNA and target gene expression | substrate of Nqo1 in vitro (Nqo1): direct substrate of Nqo1 in vitro | binding to CK2 subunits in vitro [4]: binds to CK2alpha and CK2alpha prime
